Assay results taken from US5456908A, “Polyamine-polyamine and polyamine-protein transport inhibitor conjugates and their use as pharmaceuticals and in research relating to polyamine transport” (priority 1994, dated 1995).
Read-outs that look alike come from different tables or passages of the source.

Tests used:
[1] = tested on: MES-SA human uterine sarcoma cells; assay: MTT cytotoxicity assay, MES-SA
Protocol: (§4) Cytotoxicity was assessed using the MTT assay in MES-SA and DX5 uterine sarcoma cell lines after a 24 hours exposure to ascending concentrations of the putrescine polymeric conjugates (poly-PUT conjugates) or its vehicle.
(§5) Complimentary experiments were conducted to determine whether the polyamine uptake inhibitors differentially affected the cytotoxicity and cellular uptake of vinblastine in MDR-negative and MDR-positive uterine sarcoma cells. […] The MTT assay was used to quantify the IC50 for vinblastine cytotoxicity in MES-SA and DX5 cells in the presence and absence of treatment with 100 μM poly-PUT. The calculation of cytotoxicity in these experiments accounted for the lethality associated with use of the conjugate alone.

[2] = tested on: DX5 human uterine sarcoma cells (MDR-positive); assay: MTT cytotoxicity assay, DX5; details: for IC50: Homo sapiens
Protocol: as §4, §5

[3] = tested on: R7 cells (MDR-positive variant of K567); assay: Cytotoxicity, R7 leukemia cells; details: DFMO at 1 mM concentration; MDR-positive variant of K562
[4] = tested on: DX5 human uterine sarcoma cells (MDR-positive); assay: 14C-polyamine uptake, DX5; assay type: cell-based; details: DFMO (1 mM), 24 hours
Protocol: (§1) Additional studies were conducted to determine whether MES-SA and DX5 cell lines express a polyamine transport system, and, if so, whether this system(s) was inhibited by the poly-PUT and poly-SPM conjugate. […] In the current studies, ^14 C-SPD was added in concentrations of 3 μM and cells were incubated for 30 minutes at selected temperatures (4° and 37° C). The cells were rinsed with Hanks buffer, digested for 1 hour in 1N NaOH, and cell-associated radioactivity was determined. ^14 C-SPD uptake rate was normalized to protein content. Specific, carrier-mediated polyamine uptake was […] determined at […].
(§2) In many cells, DFMO increases polyamine transport. This is believed to be a compensatory mechanism that protects these cells from polyamine depletion. […] We therefore examined the impact of DFMO on polyamine transport rate and on vinblastine accumulation and cytotoxicity in MES-SA and DX5 cells.

[5] = tested on: L1210-MGBGr leukemic cell line deficient in polyamine transport; details: polyamine synthesis blocked by DFMO; Ask et al.; cited from earlier work
[6] = tested on: cultured pulmonary artery smooth muscle cells treated with DFMO; assay: 14C-polyamine uptake in DFMO-treated pulmonary artery smooth muscle cells; details: Bos taurus, 24 h, read-out: increase of polyamine uptake relative to control cells
Protocol: DFMO treatment consisted of the addition of 1 mM of DFMO to the cultures followed by a 24 hour incubation period.
After DFMO treatment and incubation, the respective conjugates were added in amounts ranging from about 0 to 20 μM simultaneously with 3 μM of a specific ^14 C-polyamine and the cells allowed to incubate for 30 minutes. After incubation, the content of cell associated radioactivity was determined.

[7] = tested on: MES-SA human cancer cells; assay: Cellular polyamine content by HPLC, MES-SA; assay type: cell-based; details: DFMO 1 mM, Poly-SPM 20 μM
Protocol: (§3) To determine if the cytotoxicity and inhibition of polyamine transport evoked by the polyamine conjugates was,associated with depletion of cell polyamine contents, additional experiments were conducted which used HPLC to measure contents of PUT, SPD, and SPM in human uterine sarcoma and leukemia cells in the presence of poly-SPM, DFMO, and combined treatment with poly-SPM and DFMO. The latter combination was tested to determine if blockade of both transport and synthesis would promote greater decreases in polyamine content than either intervention alone. […] Further studies are planned to obtain further information regarding interactions between these pathways and their suitabilities as pharmacologic targets.

[8] = tested on: K562 human cancer cells; assay: Cellular polyamine content by HPLC, K562; assay type: cell-based; details: DFMO 1 mM, Poly-SPM 20 μM
Protocol: as §3

[9] = tested on: MES-SA human uterine sarcoma cells; assay: Cellular content of MDR substrates (vinblastine, Taxol), MES-SA; assay type: cell-based; details: DFMO (1 mM)
[10] = tested on: K562/R7 human cancer cells; assay: Cellular polyamine content by HPLC, K562/R7; assay type: cell-based; details: DFMO 1 mM, Poly-SPM 20 μM
Protocol: as §3

[11] = tested on: MES-SA human uterine sarcoma cells; assay: 14C-polyamine uptake, MES-SA; assay type: cell-based; details: DFMO (1 mM), 24 hours
Protocol: as §1, §2

[12] = tested on: DX5 human cancer cells; assay: Cellular polyamine content by HPLC, DX5; assay type: cell-based; details: DFMO 1 mM, Poly-SPM 20 μM
Protocol: as §3

[13] = tested on: K567 Human leukemia cells; assay: Cytotoxicity, K567 leukemia cells; details: DFMO at 1 mM concentration; printed K562
[14] = tested on: DX5 human uterine sarcoma cells (MDR-positive); assay: Cellular content of MDR substrates (vinblastine, Taxol), DX5; assay type: cell-based; details: DFMO (1 mM)
Protocol: Complimentary experiments were conducted to determine whether the polyamine uptake inhibitors differentially affected the cytotoxicity and cellular uptake of vinblastine in MDR-negative and MDR-positive uterine sarcoma cells.

[15] = tested on: non-mutant polyamine transport L1210 cells; details: DFMO treatment; Ask et al.; cited from earlier work
[16] = tested on: cultured pulmonary artery smooth muscle cells; assay: Hypoxia-induced fibronectin synthesis; assay type: cell-based, bovine
Text: This experiment was effected because hypoxic pulmonary hypertension is accompanied by the deposition of large quantities of fibronectin around pulmonary arteries. Therefore, there is some belief by researchers, including the present inventors, that the increased deposition of this protein may be an important cause of the sustained elevation in pulmonary arterial blood pressure. Also, hypoxia seems to cause pulmonary hypertension by a mechanism related to increased polyamine transport rather than increased de novo polyamine synthesis.

[17] = tested on: DX5 human uterine sarcoma cells (MDR-positive)
Protocol: as §4, §5

[18] = tested on: MES-SA human uterine sarcoma cells
Protocol: as §4, §5

[19] = tested on: cultured pulmonary artery smooth muscle cells; assay: 14C-polyamine uptake in cultured pulmonary artery smooth muscle cells; assay type: cell-based, bovine
Protocol: After this 30 minute period the cell-associated radioactivity was then measured to determine the uptake of polyamine by the cell culture.
Cell associated radioactivity was then measured.

[20] = conjugate 0-20 μM with 3 μM 14C-polyamine, 30 minutes

Q: With `NCCCC(N)(C(=O)O)C(F)F` (stereo not drawn) [DFMO, α-difluoro-methylornithine] as the compound, how does the toxicity to cells ([1]; DFMO at 1 mM concentration) read?
A: not toxic

Q: And the “effect of DFMO treatment on the IC50 value for vinblastine” value ([1]; DFMO treatment)?
A: failed to affect

Q: And the toxicity to cells ([2]; DFMO at 1 mM concentration, MDR-positive variant of MES-SA)?
A: not toxic

Q: What about the “effect of DFMO treatment on sensitivity to vinblastine” value ([2]; DFMO treatment, vinblastine concentrations up to 5 μM) of the same compound?
A: complete resistance

Q: What about the toxicity to cells [3] of the same compound?
A: not toxic

Q: And the “14C-Polyamine uptake, PUT” value [4]?
A: 1.1 ± 0.04 pmoles/min/mg protein

Q: What about the “14C-Polyamine uptake, SPD” value [4] of the same compound?
A: 1.6 ± .08 pmoles/min/mg protein

Q: And the cure rate [5]?
A: 33%

Q: And the activation at 1000 µM [6]?
A: ~350%

Q: What about the “Cellular Polyamine Content, SPD” value [7] of the same compound?
A: 6100 pmoles/mg protein

Q: What about the “Cellular Polyamine Content, SPM” value [7] of the same compound?
A: 8824 pmoles/mg protein

Q: What about the “Cellular Polyamine Content, SPD” value [8] of the same compound?
A: 15791 pmoles/mg protein

Q: What about the “Cellular Polyamine Content, SPM” value [8] of the same compound?
A: 17024 pmoles/mg protein

Q: And the “3H-Vinblastine Content” value [9]?
A: 840 ± 28 pmoles/mg protein

Q: What about the “Cellular Polyamine Content, SPD” value [10] of the same compound?
A: 15809 pmoles/mg protein

Q: What about the “Cellular Polyamine Content, SPM” value [10] of the same compound?
A: 15083 pmoles/mg protein

Q: And the “14C-Polyamine uptake, PUT” value [11]?
A: 0.67 ± 0.01 pmoles/min/mg protein

Q: What about the “14C-Polyamine uptake, SPD” value [11] of the same compound?
A: 7.3 ± .06 pmoles/min/mg protein

Q: What about the “Cellular Polyamine Content, SPD” value [12] of the same compound?
A: 4191 pmoles/mg protein

Q: And the “Cellular Polyamine Content, SPM” value [12]?
A: 6831 pmoles/mg protein

Q: And the toxicity to cells [13]?
A: not toxic

Q: What about the “3H-Vinblastine Content” value [14] of the same compound?
A: 195 ± 8 pmoles/mg protein

Q: What about the “increase in survival time” value [15] of the same compound?
A: two

Q: And the “Fibronectin Synthesis” value ([16]; Hypoxic)?
A: 0.09 OD/mg protein

Q: What about the “Fibronectin Synthesis” value ([16]; Normoxic) of the same compound?
A: 0.07 OD/mg protein

Q: With `CC[C@]1(O)C[C@@H]2CN(CCc3c([nH]c4ccccc34)[C@@](C(=O)OC)(c3cc4c(cc3OC)N(C)[C@H]3[C@@](O)(C(=O)OC)[C@H](OC(C)=O)[C@]5(CC)C=CCN6CC[C@]43[C@@H]65)C2)C1` [Vinblastine] as the compound, how does the IC50 ([1]; Homo sapiens, MES-SA, read-out: IC50, vinblastine cytotoxicity) read?
A: 5 nM

Q: And the IC50 ([2]; read-out: IC50, vinblastine cytotoxicity)?
A: 600 nM

Q: What about the IC50 ([2]; read-out: IC50 for vinblastine) of the same compound?
A: 500 nM

Q: What about the IC50 [17] of the same compound?
A: 116 nM

Q: And the IC50 [18]?
A: 7 nM

Q: For `COc1ccc(CCN(C)CCCC(C#N)(c2ccc(OC)c(OC)c2)C(C)C)cc1OC` (stereo not drawn) [verapamil], which “suppression of polyamine transport” value ([19]; agents known to inhibit the MDR, data not shown, 30 min) is on record?
A: 50-75%

Q: Which results are given for “Spd-BSA: conjugate between bovine serum albumin and spermidine using glutaraldehyde as a coupling agent”?
A: uptake of 14C-putrescine [19, 20]: inhibited; uptake of 14C-spermidine [19, 20]: inhibited
